Experimental data as given in patent US20160046618A1, “Cyclopropyl Fused Thiazin-2-Amine Compounds as Beta-Secretase Inhibitors and Methods of Use” (AMGEN INC., priority 2014, published 2016).

Legend:
human recombinant BACE1 = human recombinant BACE1 (Homo sapiens (Human), UniProt P56817); experiment: In vitro enzymatic BACE1 FRET assay; assay type: biochemical; details: read-out: IC50 IP (μM) BACE1 enzyme
Summary of the method: (§1)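 Protease purified by Ni-NTA chromatography; start with FRET substrate (50 nM); incubate 1 h; quench with Tris to neutral pH; read fluorescence ex 488 / em 590 nm.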

human recombinant BACE2 = human recombinant BACE2 (Homo sapiens (Human), UniProt Q9Y5Z0); experiment: In vitro enzymatic BACE2 FRET assay; assay type: biochemical; details: read-out: IC50 IP (μM) BACE2 enzyme
Summary of the method: as §1

[1] = tested on: Aβ40 in conditioned medium of cells stably expressing Amyloid Precursor Protein (APP); experiment: In vitro BACE-1 cell-based assay (Aβ40 sandwich ELISA); details: read-out: IC50 IP (μM) BACE1 cell
Summary of the method: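 APP-expressing cells treated 24 h at 37 °C with compound in 10-point dose response (top 100 μM or 10 μM, 0.1% DMSO final). Secreted Aβ40 in conditioned medium quantified by sandwich ELISA (pAb40 capture, biotinylated 6E10 detection, time-resolved europium fluorescence); IC50 from percent inhibition versus concentration.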

Recombinant Cat D = Recombinant Cat D (Homo sapiens (Human), UniProt P07339); experiment: In vitro enzymatic Cathepsin D (Cat D) FRET assay; assay type: biochemical; details: read-out: IC50 IP (μM) CatD
Summary of the method: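 Recombinant Cat D expressed in CHO cells, assayed in 0.05 M citrate pH 3.5 with 5 mM CHAPS and 10% DMSO final. Reaction started with 20 nM FRET peptide substrate, incubated one hour, then stopped by Tris buffer to neutral pH; fluorescence read at ex 500/em 580 nm.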

Recombinant Cat D, sequence (P07339 65-412): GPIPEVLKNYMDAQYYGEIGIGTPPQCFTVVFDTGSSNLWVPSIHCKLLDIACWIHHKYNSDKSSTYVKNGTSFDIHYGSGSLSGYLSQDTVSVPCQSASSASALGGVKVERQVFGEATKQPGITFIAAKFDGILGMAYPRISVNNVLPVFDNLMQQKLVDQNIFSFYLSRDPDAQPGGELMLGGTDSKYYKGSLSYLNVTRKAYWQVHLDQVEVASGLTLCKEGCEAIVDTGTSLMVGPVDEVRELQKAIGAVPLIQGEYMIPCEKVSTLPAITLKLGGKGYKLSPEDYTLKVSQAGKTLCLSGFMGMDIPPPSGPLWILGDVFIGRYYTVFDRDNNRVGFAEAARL
human recombinant BACE1, sequence (P56817 46-501): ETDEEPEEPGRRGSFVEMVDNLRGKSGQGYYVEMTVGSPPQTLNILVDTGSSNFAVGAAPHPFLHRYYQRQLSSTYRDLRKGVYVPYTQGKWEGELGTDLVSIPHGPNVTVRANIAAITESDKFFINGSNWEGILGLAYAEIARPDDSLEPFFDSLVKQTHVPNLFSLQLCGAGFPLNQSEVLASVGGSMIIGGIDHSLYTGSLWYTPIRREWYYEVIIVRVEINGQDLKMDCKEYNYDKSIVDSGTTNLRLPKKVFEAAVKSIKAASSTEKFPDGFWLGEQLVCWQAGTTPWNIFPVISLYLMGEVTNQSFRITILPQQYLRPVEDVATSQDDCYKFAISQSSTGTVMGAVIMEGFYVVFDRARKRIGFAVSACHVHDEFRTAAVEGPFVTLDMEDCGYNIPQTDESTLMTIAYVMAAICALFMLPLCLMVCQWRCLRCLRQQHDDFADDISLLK
human recombinant BACE2, sequence (Q9Y5Z0 63-518): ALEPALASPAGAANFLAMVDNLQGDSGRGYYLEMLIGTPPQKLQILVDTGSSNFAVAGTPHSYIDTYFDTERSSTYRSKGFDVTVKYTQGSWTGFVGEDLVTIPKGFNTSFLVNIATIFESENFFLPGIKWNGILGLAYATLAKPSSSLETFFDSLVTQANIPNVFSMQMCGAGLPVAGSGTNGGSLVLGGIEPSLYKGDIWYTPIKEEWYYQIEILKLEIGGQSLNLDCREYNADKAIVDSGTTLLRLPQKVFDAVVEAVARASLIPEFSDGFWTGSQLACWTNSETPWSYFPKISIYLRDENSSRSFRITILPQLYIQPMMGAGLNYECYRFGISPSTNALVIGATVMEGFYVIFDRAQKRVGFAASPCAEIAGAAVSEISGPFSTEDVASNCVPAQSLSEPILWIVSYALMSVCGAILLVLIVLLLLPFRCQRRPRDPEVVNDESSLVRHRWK

## C#CCOc1cnc2c(Nc3cnc(F)c([C@@]4(C)N=C(N)S[C@@]5([C@@H](O)C(F)(F)F)C[C@H]54)c3)ncnc2c1 [Example 666, (1S)-1-((1S,5S,6S)-3-amino-5-(2-fluoro-5-((7-(2-propyn-1-yloxy)pyrido[3,2-d]pyrimidin-4-yl)ammo)-3-pyridinyl)-5-methyl-2-thia-4-azabicyclo[4.1.0]hept-3-en-1-yl)-2,2,2-trifluoroethanol]
Human recombinant BACE1
  IC50: 0.00201 µM
Human recombinant BACE2
  IC50: 0.177 µM
[1]
  IC50: 0.00772 µM
Recombinant Cat D
  IC50: 1690 µM

## C[C@]1(c2cc(Nc3ncnc4cc(OCc5ncco5)cnc34)cnc2F)N=C(N)S[C@@]2([C@H](O)C(F)(F)F)C[C@H]21 [Example 667, (1R)-1-((1S,5S,6S)-3-amino-5-(2-fluoro-5-((7-(1,3-oxazol-2-ylmethoxy)pyrido[3,2-d]pyrimidin-4-yl)amino)-3-pyridinyl)-5-methyl-2-thia-4-azabicyclo[4.1.0]hept-3-en-1-yl)-2,2,2-trifluoroethanol]
Human recombinant BACE1
  IC50: 0.00262 µM
Human recombinant BACE2
  IC50: 0.0599 µM
[1]
  IC50: 0.00362 µM
Recombinant Cat D
  IC50: 1160 µM

## C[C@]1(c2cc(Nc3ncnc4cc(OCc5ncco5)cnc34)cnc2F)N=C(N)S[C@@]2([C@@H](O)C(F)(F)F)C[C@H]21 [Example 668, (1S)-1-((1S,5S,6S)-3-amino-5-(2-fluoro-5-((7-(1,3-oxazol-2-ylmethoxy)pyrido[3,2-d]pyrimidin-4-yl)amino)-3-pyridinyl)-5-methyl-2-thia-4-azabicyclo[4.1.0]hept-3-en-1-yl)-2,2,2-trifluoroethanol]
Human recombinant BACE1
  IC50: 0.0033 µM
Human recombinant BACE2
  IC50: 0.233 µM
[1]
  IC50: 0.00697 µM
Recombinant Cat D
  IC50: 1970 µM

## C[C@]1(c2cc(Nc3nccc4cc(OCc5ncco5)cnc34)cnc2F)N=C(N)S[C@]2(CO)[C@H]1C2(F)F [Example 669, ((1S,5S,6R)-3-amino-7,7-difluoro-5-(2-fluoro-5-((3-(1,3-oxazol-2-ylmethoxy)-1,7-naphthyridin-8-yl)amino)-3-pyridinyl)-5-methyl-2-thia-4-azabicyclo[4.1.0]hept-3-en-1-yl)methanol]
Human recombinant BACE1
  IC50: 0.00119 µM
Human recombinant BACE2
  IC50: 0.036 µM
[1]
  IC50: 0.00593 µM
Recombinant Cat D
  IC50: 1140 µM

## C#CCOc1cnc2c(Nc3cnc(F)c([C@@]4(C)N=C(N)S[C@@]5(CO)C[C@H]54)c3)ncnc2c1 [Example 670, ((1S,5S,6S)-3-amino-5-(2-fluoro-5-((7-(2-propyn-1-yloxy)pyrido[3,2-d]pyrimidin-4-yl)amino)-3-pyridinyl)-5-methyl-2-thia-4-azabicyclo[4.1.0]hept-3-en-1-yl)methanol]
Human recombinant BACE1
  IC50: 0.0024 µM
Human recombinant BACE2
  IC50: 0.17 µM
[1]
  IC50: 0.000969 µM
Recombinant Cat D
  IC50: 730 µM

## C#CCOc1cnc2c(Nc3ccc(F)c([C@@]4(C)N=C(N)S[C@@]5([C@H](O)C(F)(F)F)C[C@H]54)c3)nccc2n1 [Example 671, (1R)-1-((1S,5S,6S)-3-amino-5-(2-fluoro-5-((2-(2-propyn-1-yloxy)pyrido[3,4-b]pyrazin-5-yl)amino)phenyl)-5-methyl-2-thia-4-azabicyclo[4.1.0]hept-3-en-1-yl)-2,2,2,-trifluoroethanol]
Human recombinant BACE1
  IC50: 0.000943 µM
Human recombinant BACE2
  IC50: 0.0236 µM
[1]
  IC50: 0.00177 µM
Recombinant Cat D
  IC50: 1040 µM

## C#CCOc1cnc2c(Nc3ccc(F)c([C@@]4(C)N=C(N)S[C@@]5([C@@H](O)C(F)(F)F)C[C@H]54)c3)nccc2n1 [Example 672, (1S)-1-((1S,5S,6S)-3-amino-5-(2-fluoro-5-((2-(2-propyn-1-yloxy)pyrido[3,4-b]pyrazin-5-yl)amino)phenyl)-5-methyl-2-thia-4-azabicyclo[4.1.0]hept-3-en-1-yl)-2,2,2-trifluoroethanol]
Human recombinant BACE1
  IC50: 0.00142 µM
Human recombinant BACE2
  IC50: 0.0685 µM
[1]
  IC50: 0.007 µM
Recombinant Cat D
  IC50: 638 µM

## C#CCOc1cnc(C(=O)Nc2ccc(F)c([C@@]3(C)N=C(N)S[C@@]4([C@H](O)C(F)(F)F)C[C@H]43)c2)cn1 [Example 673, N-(3-((1S,5S,6S)-3-amino-5-methyl-1-((1R)-2,2,2-trifluoro-1-hydroxyethyl)-2-thia-4-azabicyclo[4.1.0]hept-3-en-5-yl)-4-fluorophenyl)-5-(2-propyn-1-yloxy)-2-pyrazinecarboxamide]
Human recombinant BACE1
  IC50: 0.000389 µM
Human recombinant BACE2
  IC50: 0.00602 µM
[1]
  IC50: 0.000398 µM
Recombinant Cat D
  IC50: 101 µM

## C#CCOc1cnc(C(=O)Nc2ccc(F)c([C@@]3(C)N=C(N)S[C@@]4([C@@H](O)C(F)(F)F)C[C@H]43)c2)cn1 [Example 674, N-(3-((1S,5S,6S)-3-amino-5-methyl-1-((1S)-2,2,2-trifluoro-1-hydroxyethyl)-2-thia-4-azabicyclo[4.1.0]hept-3-en-5-yl)-4-fluorophenyl)-5-(2-propyn-1-yloxy)-2-pyrazinecarboxamide]
Human recombinant BACE1
  IC50: 0.000368 µM
Human recombinant BACE2
  IC50: 0.0133 µM
[1]
  IC50: 0.000776 µM
Recombinant Cat D
  IC50: 149 µM

## COC[C@]12C[C@H]1[C@@](C)(c1cc(NC(=O)c3ncc(OCC(F)(F)F)cc3C)cc(F)c1F)N=C(N)S2 [Example 675, N-(3-((1S,5S,6S)-3-amino-1-(methoxymethyl)-5-methyl-2-thia-4-azabicyclo[4.1.0]hept-3-en-5-yl)-4,5-difluorophenyl)-3-methyl-5-(2,2,2-trifluoroethoxy)-2-pyridinecarboxamide]
Human recombinant BACE1
  IC50: 0.0124 µM
Human recombinant BACE2
  IC50: 0.703 µM
[1]
  IC50: 0.0519 µM
Recombinant Cat D
  IC50: 1010 µM

## C#CCOc1cnc2c(Nc3cnc(F)c([C@@]4(C)N=C(N)S[C@@]5([C@H](OC)C(F)(F)F)C[C@H]54)c3)nccc2n1 [Example 676, N-(5-((1S,5S,6S)-3-amino-5-methyl-1-((1R)-2,2,2-trifluoro-1-methoxyethyl)-2-thia-4-azabicyclo[4.1.0]hept-3-en-5-yl)-6-fluoro-3-pyridinyl)-2-(2-propyn-1-yloxy)pyrido[3,4-b]pyrazin-5-amine]
Human recombinant BACE1
  IC50: 0.00155 µM
Human recombinant BACE2
  IC50: 0.0157 µM
[1]
  IC50: 0.0033 µM
Recombinant Cat D
  IC50: 337 µM

## C#CCOc1cnc2c(Nc3cnc(F)c([C@@]4(C)N=C(N)S[C@@]5([C@@H](OC)C(F)(F)F)C[C@H]54)c3)nccc2n1 [Example 677, N-(5-((1S,5S,6S)-3-amino-5-methyl-1-((1S)-2,2,2-trifluoro-1-methoxyethyl)-2-thia-4-azabicyclo[4.1.0]hept-3-en-5-yl)-6-fluoro-3-pyridinyl)-2-(2-propyn-1-yloxy)pyrido[3,4-b]pyrazin-5-amine]
Human recombinant BACE1
  IC50: 0.0016 µM
Human recombinant BACE2
  IC50: 0.00948 µM
[1]
  IC50: 0.00305 µM
Recombinant Cat D
  IC50: 306 µM

## COC[C@]12C[C@H]1[C@@](C)(c1cc(NC(=O)c3ncc(OCC(F)(F)F)cc3C)ccc1F)N=C(N)S2 [Example 681, N-(3-((1S,5S,6S)-3-amino-1-(methoxymethyl)-5-methyl-2-thia-4-azabicyclo[4.1.0]hept-3-en-5-yl)-4-fluorophenyl)-3-methyl-5-(2,2,2-trifluoroethoxy)-2-pyridinecarboxamide]
Human recombinant BACE1
  IC50: 0.0109 µM
Human recombinant BACE2
  IC50: 0.789 µM
[1]
  IC50: 0.0555 µM
Recombinant Cat D
  IC50: 1450 µM

## C#CCOc1cnc(C(=O)Nc2ccc(F)c([C@@]3(C)N=C(N)S[C@@]4(COC)C[C@H]43)c2)c(C)c1 [Example 683, N-(3-((1S,5S,6S)-3-amino-1-(methoxymethyl)-5-methyl-2-thia-4-azabicyclo[4.1.0]hept-3-en-5-yl)-4-fluorophenyl)-3-methyl-5-(2-propyn-1-yloxy)-2-pyridinecarboxamide]
Human recombinant BACE1
  IC50: 0.00391 µM
Human recombinant BACE2
  IC50: 0.0267 µM
[1]
  IC50: 0.008 µM
Recombinant Cat D
  IC50: 2100 µM

## C#CCOc1cnc(C(=O)Nc2cc(F)c(F)c([C@@]3(C)N=C(N)S[C@@]4(CF)C[C@H]43)c2)c(C)c1 [Example 684, N-(3-((1S,5S,6S)-3-amino-1-(fluoromethyl)-5-methyl-2-thia-4-azabicyclo[4.1.0]hept-3-en-5-yl)-4,5-difluorophenyl)-3-methyl-5-(2-propyn-1-yloxy)-2-pyridinecarboxamide]
Human recombinant BACE1
  IC50: 0.00146 µM
Human recombinant BACE2
  IC50: 0.0332 µM
[1]
  IC50: 0.00684 µM
Recombinant Cat D
  IC50: 1040 µM

## C#CCOc1cnc(C(=O)Nc2cc(F)c(F)c([C@@]3(C)N=C(N)S[C@@]4(C(F)F)C[C@@H]34)c2)c(C)c1 [Example 685, N-(3-((1S,5S,6S)-3-amino-1-(difluoromethyl)-5-methyl-2-thia-4-azabicyclo[4.1.0]hept-3-en-5-yl)-4,5-difluorophenyl)-3-methyl-5-(2-propyn-1-yloxy)-2-pyridinecarboxamide]
Human recombinant BACE1
  IC50: 0.00112 µM
Human recombinant BACE2
  IC50: 0.018 µM
[1]
  IC50: 0.0197 µM
Recombinant Cat D
  IC50: 463 µM

## C#CCOc1cnc(C(=O)Nc2ccc(F)c([C@@]3(C)N=C(N)S[C@@]4(C(F)F)C[C@@H]34)c2)c(C)c1 [Example 686, N-(3-((1S,5S,6S)-3-amino-1-(difluoromethyl)-5-methyl-2-thia-4-azabicyclo[4.1.0]hept-3-en-5-yl)-4-fluorophenyl)-3-methyl-5-(2-propyn-1-yloxy)-2-pyridinecarboxamide]
Human recombinant BACE1
  IC50: 0.00167 µM
Human recombinant BACE2
  IC50: 0.0221 µM
[1]
  IC50: 0.00967 µM
Recombinant Cat D
  IC50: 496 µM

## COC[C@]12C[C@H]1[C@@](C)(c1cc(NC(=O)c3ncc(O[C@@H](C)c4ncco4)cc3C)cc(F)c1F)N=C(N)S2 [Example 687, N-(3-((1S,5S,6S)-3-amino-1-(methoxymethyl)-5-methyl-2-thia-4-azabicyclo[4.1.0]hept-3-en-5-yl)-4,5-difluorophenyl)-3-methyl-5-((1S)-1-(1,3-oxazol-2-yl)ethoxy)-2-pyridinecarboxamide]
Human recombinant BACE1
  IC50: 0.117 µM
Human recombinant BACE2
  IC50: 2.52 µM
[1]
  IC50: 0.569 µM
Recombinant Cat D
  IC50: > 400 µM
